The results in this text go back to US5869500A, “Pyridone compounds useful in treating Alzheimer's disease” (Hoffmann-La Roche Inc., priority 1996, dated 1999).

The test concerns Aβ production in HEK cells over-expressing mutated β-APP (SFAD). As to the kind of experiment: Aβ production inhibition, sandwich-ELISA in HEK cells, over-expressed mutated β-APP (SE-SFAD). It counts as cell-based, human. Conditions: for IC50: based on the respective plateau of maximum inhibition; for Emax: maximum inhibition plateau, read-out: SE-SFAD max. inhibition %. How it is done: The effect of test substances on the inhibition of Aβ-amyloid production can be measured in the supernatant of cell cultures of β-APP expressed cells using ELISA tests or other quantitative determination methods for β-APP degradation products. Typically, 8×10^5 cells (e.g. HEK cells, which express recombinant human β-APP variants) are plated out in each well of a culture dish having 24 wells in growth media such as e.g. OPTIMEM (Gibco) and the test compound is then added. After an incubation period of 24 to 48 hours at 37° C. in a 10% CO2 atmosphere the supernatant is removed from the cell cultures and the β-APP degradation products (e.g. Aβ or β-[…]) are determined with the aid of ELISA (or sandwich ELISA) analysis or by means of quantitative immunoprecipitation (after metabolic radiolabelling of the cell proteins). Typically, 300 μl of the cell supernatant are tested according to the state of the art for ELISA tests in culture dishes having 96 wells. In the case of sandwich ELISA for Aβ, the binding antibody can be directed against the first 16 amino acids of Aβ-peptide (e.g. 6E10 Senetek, Maryland Heights, Mo.) and the detection antibody can be directed against amino acids 17-40 or 17-42 of Aβ and carries a detection system such as e.g. peroxidase. A simple ELISA test with an antibody, e.g. 22C11 (Boehringer Mannheim), can be used as the test for […]; the second antibody can be an anti-(mouse) Ig having a detection system, such as e.g. peroxidase. The peroxidase reaction can be carried out e.g. using a TMB substrate (BioRAD) and the measurements can be carried out at 650 nm using an ELISA reading apparatus. […] SE-SFAD signifies the Aβ production inhibition measured using sandwich-ELISA in HEK cells, SFAD signifies over-expressed mutated β-APP, and SE-WT signifies the Aβ production inhibition measured using sandwich-ELISA in HEK cells which over-express Wild type β-APP. The IC50 values are based on the respective plateau of maximum inhibition.
(In an ELISA, binding on a coated surface is turned into a signal by an enzyme label.)

The mark [1] stands for this setting: Homo sapiens, HEK293, HEK cells.

The structures appear in SMILES notation.

Take `CCN(CCOC)C(=O)c1cc(-c2ccc(Oc3ccccc3)cc2)c(=O)n2ccc3ccsc3c12` [Compound 99, 7-Oxo-8-(4-phenoxy-phenyl)-7H-thieno[2,3-a]quinolizine-10-carboxylic acid ethyl-(2-methoxy-ethyl)-amide]: under setting [1], it took 2500 nM to reach half-maximal inhibition (IC50) and the Emax was found to be 100%.
In the case of `COCCN(Cc1ccccc1)C(=O)c1cc(-c2ccc(Oc3ccccc3)cc2)c(=O)n2ccc3ccsc3c12` [Compound 100, 7--Oxo-8-(4-phenoxy-phenyl)-7H-thieno[2,3-a]quinolizine-10-carboxylic acid benzyl-(2-methoxy-ethyl)-amide], under setting [1], the IC50 – broadly, the concentration at which inhibition is half-maximal – was 600 nM and the Emax was determined as 100%.
As to `COCCN(C(=O)c1cc(-c2ccc(Oc3ccccc3)cc2)c(=O)n2ccc3ccsc3c12)c1ccccc1` [Compound 101, 7--Oxo-8-(4-phenoxy-phenyl)-7H-thieno[2,3-a]quinolizine-10-carboxylic acid (2-methoxy-ethyl)-phenyl-amide], under setting [1], the IC50 was 900 nM and the Emax came out at 100%.
As to `COCCN(C(=O)c1cc(-c2ccc(OCc3ccccc3)cc2)c(=O)n2ccc3c(ncn3C)c12)c1ccccc1` [Compound 102, 8-(4-Benzyloxy-phenyl)-3-methyl-7-oxo-3,7-dihydro-imidazo [4,5-a]quinolizine-10-carboxylic acid (2-methoxy-ethyl)-phenyl-amide], under setting [1], half-maximal inhibition (IC50) required 3600 nM and the Emax was found to be 80%.
Consider `COCCN(CCOC)C(=O)c1cc(-c2ccc(OCc3ccccc3)cc2)c(=O)n2ccc3c(ncn3C)c12` [Compound 103, 8-(4-Benzyloxy-phenyl)-3-methyl-7-oxo-3,7-dihydro-imidazo[4,5-a]-quinolizine-10-carboxylic acid bis-(2-methoxy-ethyl)-amide], for which, under setting [1], the IC50 amounted to 5000 nM and the Emax lay in the range of 35 to 55%.
The corresponding values for `COCCN(CC1CC1)C(=O)c1cc(-c2ccc(OCc3ccccc3)cc2)c(=O)n2ccc3c(ncn3C)c12` [Compound 104, 8-(4-Benzyloxy-phenyl)-3-methyl-7-oxo-3,7-dihydro-imidazo [4,5-a]-quinolizine-10-carboxylic acid cyclopropylmethyl-(2-methoxy-ethyl)-amide] are 3000 nM and 100%.
Regarding `CCCN(CCOC)C(=O)c1cc(-c2ccc(OCc3ccccc3)cc2)c(=O)n2ccc3c(ncn3C)c12` [Compound 105, 8-(4-Benzyloxy-phenyl)-3-methyl-7-oxo-3,7-dihydro-imidazo[4,5-a]-quinolizine-10-carboxylic acid (2-methoxy-ethyl)-propyl-amide], under setting [1], inhibition was half-maximal at 5000 nM (IC50) and the Emax was 50%.
For `CCN(CCOC)C(=O)c1cc(-c2ccc(C(C)(C)C)cc2)c(=O)n2ccc3ccsc3c12` [Compound 107, 8-(4-tert-Butyl-phenyl)-7-oxo-7H-thieno[2,3-a]quinolizine-10-carboxylicacid ethyl-(2-methoxy-ethyl)-amide] the same measures were 3000 nM and 20%.
With `COCCNC(=O)c1cc(-c2ccc(C(C)(C)C)cc2)c(=O)n2ccc3ccsc3c12` [Compound 110, 8-(4-tert-Butyl-phenyl)-7-oxo-7H-thieno[2,3-a]quinolizine-10-carboxylicacid (2-methoxy-ethyl)-amide], under setting [1], 6200 nM corresponded to half-maximal inhibition (IC50) and the Emax came to 95%.
In the case of `COCCN(C(=O)c1cc(-c2ccc(C(C)(C)C)cc2)c(=O)n2ccc3ccsc3c12)c1ccccc1` [Compound 111, 8-(4-tert-Butyl-phenyl)-7-oxo-7H-thieno[2,3-a]quinolizine-10-carboxylicacid (2-methoxy-ethyl)-phenyl-amide], under setting [1], half-maximal inhibition (IC50) required 2500 nM and the Emax came out at 100%.
The corresponding values for `COCCN(CC1CC1)C(=O)c1cc(-c2ccc(C(C)(C)C)cc2)c(=O)n2ccc3ccsc3c12` [Compound 112, 8-(4-tert-Butyl-phenyl)-7-oxo-7H-thieno[2,3-a]quinolizine-10-carboxylicacid cyclopropylmethyl-(2-methoxy-ethyl)-amide] are 1500 nM and 100%.
For `COCCN(Cc1ccccc1)C(=O)c1cc(-c2ccc(C(C)(C)C)cc2)c(=O)n2ccc3ccsc3c12` [Compound 113, 8-(4-tert-Butyl-phenyl)-7-oxo-7H-thieno[2,3-a]quinolizine-10-carboxylicacid benzyl-(2-methoxy-ethyl)-amide] the same measures were 3000 nM and 100%.
On to `COC(=O)c1cc(-c2ccccc2OC)c(=O)n2ccc3ccsc3c12` [Compound 114, Methyl 8-(2-methoxy-phenyl)-7-oxo-7H-thieno[2,3-a]quinolizine-10-carboxylate], for which the IC50 (HEK cells) was 6300 nM. Besides, under setting [1], the Emax stood at 70%.
Consider `COCCNC(=O)c1cc(-c2ccccc2OC)c(=O)n2ccc3ccsc3c12` [Compound 115, 8-(2-Methoxy-phenyl)-7-oxo-7H-thieno[2,3-a]quinolizine-10-carboxylic acid (2-methoxy-ethyl)-amide], for which, under setting [1], half-maximal inhibition (IC50) required 20000 nM and the Emax was 50%.
In the case of `COCCN(CC1CC1)C(=O)c1cc(-c2ccccc2OC)c(=O)n2ccc3ccsc3c12` [Compound 119, 8-(2-Methoxy-phenyl)-7-oxo-7H-thieno[2,3-a]quinolizine-10-carboxylic acid cyclopropylmethyl-(2-methoxy-ethyl)-amide], under setting [1], the IC50 was determined as 1600 nM and the Emax lay within 60 to 80%.
In the case of `COCCN(Cc1ccccc1)C(=O)c1cc(-c2ccccc2OC)c(=O)n2ccc3ccsc3c12` [Compound 120, 8-(2-Methoxy-phenyl)-7-oxo-7H-thieno[2,3-a]quinolizine-10-carboxylic acid benzyl-(2-methoxy-ethyl)-amide], under setting [1], the IC50 was 1800 nM and the Emax came to 100%.
On to `COCCN(C(=O)c1cc(-c2ccccc2OC)c(=O)n2ccc3ccsc3c12)c1ccccc1` [Compound 121, 8-(2-Methoxy-phenyl)-7-oxo-7H-thieno[2,3-a]quinolizine-10-carboxylic acid (2-methoxy-ethyl)-phenyl-amide], for which, under setting [1], the IC50 amounted to 1800 nM and the Emax worked out at 100%.
Take `CCN(CCOC)C(=O)c1cc(-c2ccccc2OC)c(=O)n2ccc3ccsc3c12` [Compound 122, 8-(2-Methoxy-phenyl)-7-oxo-7H-thieno[2,3-a]quinolizine-10-carboxylic acidethyl-(2-methoxy-ethyl)-amide]: under setting [1], 8000 nM corresponded to half-maximal inhibition (IC50) and the Emax was 25%.
For `COc1cccc(-c2cc(C(=O)Nc3ccc(OC)c(OC)c3)c3c4sccc4ccn3c2=O)c1` [Compound 123, 8-(3-Methoxy-phenyl)-7-oxo-7H-thieno[2,3-a]quinolizine-10-carboxylic acid (3,4-dimethoxy-phenyl)-amide] the same measures were 800 nM and 100%.
For `COc1cccc(-c2cc(C(=O)Nc3ccncc3)c3c4sccc4ccn3c2=O)c1` [Compound 124, 8-(3-Methoxy-phenyl)-7-oxo-7H-thieno[2,3-a]quinolizine-10-carboxylic acid pyridin-4yl-amide] the same measures were 800 nM and 35%.
As to `COCCN(Cc1cccs1)C(=O)c1cc(-c2cccc(OC)c2)c(=O)n2ccc3ccsc3c12` [Compound 125, 8-(3-Methoxy-phenyl)-7-oxo-7H-thieno[2,3-a]quinolizine-10-carboxylic acid (2-methoxy-ethyl)-thiophen-2-yl-methyl-amide], under setting [1], inhibition was half-maximal at 2000 nM (IC50) and the Emax was determined as 10%.
